Experiments:
IMR-90 fibroblasts = assay type: cell-based, human
Procedure: (§1) Human fetal lung fibroblasts (IMR-90) were cultured in Dulbecco's modified eagle medium (DMEM) supplemented with 10% FBS and penicillin/streptomycin. LL 29 (AnHa) cells were obtained from the ATCC and growth to confluence using the ATCC protocol, but were subcultured as described for IMR-90 before initiation of all experiments. Quiescence was induced by replacing culture media with media containing 0.2% FBS. MCF-7 and MDA-MB-231 breast cancer cells were cultured in RPMI supplemented with 10% FBS and penicillin/streptomycin. All cells were cultured at 3% O2, and used between 25 and 40 population doublings. All cells were mycoplasma free.
RNA was extracted from cells or tissues using commercially available kits (Isolate II—Bioline for cells; Direct-zol—Zymo for tissues) according to the manufacturer's instructions. cDNA synthesis was performed using a High Capacity cDNA Reverse Transcription Kit (Thermo Fisher) according to the manufacturer's instructions. Quantitative PCR was performed on a LightCycler 480 II (Roche) using primers and probes designed for the Universal Probe Library. Primers and probes used for human transcripts were ACTB: 5′-CCAACCGCGAGAAGATGA (SEQ ID NO:1), 5′-TCCATCACGATGCCAGTG (SEQ ID NO:2), Probe #64; TUBA: 5′-cttcgtctccgccatcag (SEQ ID NO:3), 5′-ttgccaatctggacacca (SEQ ID NO:4), Probe #58; ALOX5: 5′-[…] (SEQ ID NO:5), 5′-[…] (SEQ ID NO:6), Probe #64; ALOX5AP: 5′-ggtctgcggggctacttt (SEQ ID NO:7), 5′-[…] (SEQ ID NO:8), Probe #18; ALOX12: 5′-[…] (SEQ ID NO:9), 5′-agccaggtcgtcaggag (SEQ ID NO:10), Probe #32; ALOX15: 5′-[…] (SEQ ID NO:11), 5′-[…] (SEQ ID NO:12), Probe #76; ALOX15B: 5′-[…] (SEQ ID NO:13), 5′-actgggaggcgaagaagg (SEQ ID NO:14), Probe #51; AKR1C1: 5′-catgcctgtcctgggattt (SEQ ID NO:15), 5′-[…] (SEQ ID NO:16), Probe #49; AKR1C2: 5′-ctatgcgcctgcagaggt (SEQ ID NO:17), 5′-[…] (SEQ ID NO:18), Probe #31; AKR1C3: 5′-[…] (SEQ ID NO:19), 5′-[…] (SEQ ID NO:20), Probe #78; CYSLTR2: 5′-[…] (SEQ ID NO:21), 5′-[…] (SEQ ID NO:22), Probe #18; DPEP1: 5′-gacgtcctgaggctggtg (SEQ ID NO:23), 5′-[…] (SEQ ID NO:24), Probe #9 (SEQ ID NO:25), ELOVL2: 5′-[…] (SEQ ID NO:26), 5′-[…] (SEQ ID NO:27), Probe #53; ELOVL4: 5′-catttggcccatggattc (SEQ ID NO:28), 5′-[…] (SEQ ID NO:29), Probe #31; ELOVL5: 5′-cccttccatgcgtccata (SEQ ID NO:30), 5′-[…] (SEQ ID NO:31), Probe #31; EPHX2: 5′-ttctgctggacaccctgaa (SEQ ID NO:32), 5′-[…] (SEQ ID NO:33), Probe #45; GPX4: 5′-ttcccgtgtaaccagttcg (SEQ ID NO:34), 5′-[…] (SEQ ID NO:35), Probe #36; LTA4H: 5′-ctgctctcacggtccagtc (SEQ ID NO:36), 5′-[…] (SEQ ID NO:37), Probe #64; LTBR2: 5′-[…] (SEQ ID NO:38), 5′-[…] (SEQ ID NO:39), Probe #33; LTC4S: 5′-[…] (SEQ ID NO:40), 5′-[…] (SEQ ID NO:41), Probe #18; PTGDS: 5′-[…] (SEQ ID NO:42), 5′-[…] (SEQ ID NO:43), Probe #36; PTGES: 5′-agagatgcctgcccacag (SEQ ID NO:44), 5′-tggccaccacgtacatctt (SEQ ID NO:45), Probe #4; PTGES2: 5′-[…] (SEQ ID NO:46), 5′-[…] (SEQ ID NO:47), Probe #49; PTGES3 (SEQ ID NO:48), 5′-[…] (SEQ ID NO:49), 5′-[…] (SEQ ID NO:50), Probe #48; PTGIS: 5′-[…] (SEQ ID NO:51), 5′-[…] (SEQ ID NO:52), Probe #45; PTGR1: 5′-atgatggggcagcaagtg (SEQ ID NO:53), 5′-cccatcagaaatggagtgc (SEQ ID NO:54), Probe #64; PTGS1: 5′-[…] (SEQ ID NO:55), 5′-gtggtggtccatgttcctg (SEQ ID NO:56), Probe #81; PTGS2: 5′-gatccccagggctcaaac (SEQ ID NO:57), 5′-[…] (SEQ ID NO:58), Probe #61; TBXAS1: 5′-[…] (SEQ ID NO:59), 5′-tgcctcccgtgtgaatct (SEQ ID NO:60), Probe #73; AREG: 5′-[…] (SEQ ID NO:61), 5′-[…] (SEQ ID NO:62), Probe #73; CCL2: 5′-AGTCTCTGCCGCCCTTCT (SEQ ID NO:63), 5′-GTGACTGGGGCATTGATTG (SEQ ID NO:64), Probe #40; CCL27: 5′-[…] (SEQ ID NO:65), 5′-gctgggtggcagtaggaat (SEQ ID NO:66), Probe #18; CXCL1: 5′-[…] (SEQ ID NO:67), 5′-[…] (SEQ ID NO:68), Probe #52; HGF: 5′-[…] (SEQ ID NO:69), 5′-[…]

[1] = test system: IL-6 secretion in senescent cells; assay: IL-6 ELISA on conditioned media of IR-induced senescent cells treated with COX-2/ALOX5 inhibitors; assay type: cell-based, human; conditions: SEN(IR) IMR-90, inhibitor for 10 days
Procedure: as §1
Senescence was induced by irradiation with 10 Gy of ionizing radiation. Non-senescent controls (proliferating or quiescent) were placed in the irradiator for an identical period of time without turning on the irradiator. Oncogene-induced senescence was induced via lentiviral overexpression of HRAS^V12, as described previously (Wiley et al. (2016) Cell Metab. 23: 303-314).
3×10^4 cells in 12-well plates were treated as indicated in the text, and cultured in 0.5-1 ml serum-free DMEM for 24 hr. CM were collected and clarified at 2,000×g for 10 min. Supernatants were transferred to a tube; cells were trypsinized and counted. CM (2.5 μl) were analyzed by bead-based ELISAs (AlphaLISA, Perkin-Elmer) as instructed by the manufacturer and normalized to cell number.

With `CS(=O)(=O)c1ccc(-c2noc(C(F)(F)F)c2-c2ccccc2)cc1` [CAY-10404] the “number of cells following irradiation” value (IMR-90 fibroblasts; 5 Gy IR, 10 days) was “significantly increased”, the “cell number relative to DMSO-treated SEN(IR) cells” value (IMR-90 fibroblasts; SEN(IR) cells counted for IL-6 ELISA normalization) was “increase in cell number” and the “lowered IL-6 secretion in senescent cells” value [1] was ~70%.
